Results on four compounds are retold here after patent publication US9416103B2, “Use of the aminoalkylindole JWH-073-M4 and related compounds as neutral CB1 receptor antagonists for the treatment of alcoholism, drug abuse, obesity, and obesity-related diseases” (The Board of Trustees of the University of Arkansas, priority 2012, dated 2016).

Like-named read-outs stand apart in the source and are kept apart here. Marks after values point to notes of the source that are not given here.

In series [1] the test system is mice. The experiment in a line: Alcohol conditioned place preference (CPP). It counts as in vivo, mouse. As to conditions: 10 mg/kg given 1 hour before EtOH pairings. As to the method:
Alcohol conditioned place preference assay was done with compounds TV-6-41 and rimonabant. This assay tests the effects of these compounds on conditioned rewarding effects of EtOH. Training of mice involved 4 daily injections of […] EtOH paired with location to one of two chambers (four pairings) after which an increase in time spent in the EtOH-paired chamber was observed, and this points to the development of conditioned place preference (FIG. 24, ‘Pre” bar vs. “Post” bar). […] With the CPP training underway, mice were exposed to succeeding conditioning trials either with 10 mg/kg TV-6-41 or […] 1 hour before EtOH pairings. […] During these studies it was observed that 4 pairings of […] EtOH elicited a CPP of about 400 sec (FIG. 25, “No inj” bar).

In series [2] the test system is mice. Kind of series: Oral EtOH self administration, 2-bottle choice procedure. As to conditions: daily treatment 10 mg/kg. From the text: These assays are important models for the study of alcoholism because they model several aspects of this condition including voluntary EtOH drinking (SA), conditioned EtOH reward (CPP), abstinence and relapse, which represent extinction and reinstatement of CPP, respectively. Effects of TV-5-249 on voluntary 10% EtOH drinking were studied using a 2-bottle choice procedure described by Keane and coworkers as wells as by Cunningham and coworkers. […] After 5 such observations, which represents a two week washout period, daily treatments with 10 mg/kg TV-5-249 were initiated. […] The last treatment was an everyday injection of vehicle, which is 8% Tween/92% sterile water solution and it represents the solution in which both drugs were dissolved in prior to injections.

Series [3] concerns the target CB1Rs endogenously expressed in Neuro2A cells (Mus musculus (Mouse), UniProt P47746). Kind of series: Adenylyl cyclase (AC) inhibition via CB1Rs endogenously expressed in Neuro2A cells. It counts as cell-based. Particulars: for antagonism of AC-inhibition produced by the CB1R full agonist JWH-073: 1 μM concentration; for inhibition at 10 µM: N2a.
Series [4] addresses T1, CB1Rs (Mus musculus (Mouse), UniProt P47746). The experiment in a line: Competition receptor binding with [3H]CP-55,940 in mouse brain homogenates. Particulars: Table 3; read-out: mCB1R Ki. As to the method: (§1) Mouse brain homogenates for in vitro assays were prepared as previously described. Briefly, whole brains were harvested from B6SJL mice, snap-frozen in liquid nitrogen and stored at −80° C. On the day membrane homogenates were to be prepared, brains were thawed on ice, then pooled in a 40 mL Dounce glass homogenizer and suspended in 5 volumes of ice cold homogenization buffer (50 mM HEPES, pH 7.4, 3 mM MgCl2, and 1 mM EGTA). Brains were then subjected to 10 complete strokes with an A pestle, followed by centrifugation at 40,000×g for 10 minutes at +4° C. Resulting supernatants were discarded, and the pellet was resuspended, homogenized and centrifuged similarly twice more, with supernatants being discarded. For the final resuspension and homogenization with a B pestle, ice-cold 50 mM HEPES was used in place of homogenization buffer, and homogenates were aliquoted and stored at −80° C. Protein concentrations of homogenates were determined using the BCA™ Protein Assay (Thermo Scientific, Rockford, Ill.).
(§2) Competition receptor binding was performed as previously described. […] Reactions were terminated by rapid vacuum filtration through Whatman GF/B glass fiber filters, followed by five washes with ice-cold buffer (50 mM Tris, 0.05% BSA). Filters were immediately placed into 7 mL scintillation vials to which 4 mL of ScintiVerse™ BD Cocktail scintillation fluid (Fisher Scientific, Fair Lawn, N.J.) was added. Bound radioactivity was determined after overnight incubation at room temperature and shaking, by liquid scintillation spectrophotometry with an efficiency of 44% (Tri Carb 2100 TR Liquid Scintillation Analyzer, Packard Instrument Company, Meriden, Conn.). Specific binding is expressed as total binding minus non-specific binding, and is graphed for each data point as a percentage of specific binding occurring in the absence of any competitor.
(§3) Curve fitting and statistical analyses for in vitro experiments were performed using GraphPad Prism™ version 5.0b (GraphPad Software Inc., San Diego, Calif.). The Cheng-Prusoff equation [45] was used to convert the experimental IC50 values obtained from competition receptor binding experiments to Ki values, a quantitative measure of receptor affinity. Non-linear regression for one-site competition was used to determine the IC50 for competition receptor binding. Curve fitting of concentration-effect curves via non-linear regression was also employed to determine the EC50 (a measure of potency) and Emax (a measure of efficacy) for [^35S]GTPγS concentration-effects experiments. […] Data are expressed as mean±SEM. The Student's t-test was used to determine statistical significance (P<0.05) between two groups, while a one-way ANOVA, followed by Tukey's Multiple Comparison post-hoc test, was used to determine statistical significance (P<0.05) between three or more groups.
(§4) The prepared analogues were subjected to in vitro pharmacological testing, which included receptor binding and functional assays at both cannabinoid receptors. Initial receptor binding screens at both CB1Rs and CB2Rs were conducted for the analogues prepared.

The target in series [5] is T2, hCB2Rs (Homo sapiens (Human), UniProt P34972). Kind of series: Inhibition of forskolin-stimulated cAMP production (adenylyl cyclase) in intact CHO-hCB2R cells. It counts as cell-based. As to conditions: for inhibition at 10 µM: CHO cell transfected with hCB2 receptors, read-out: AC-inhibition at CB2Rs; for inhibition of AC-activity at CB2Rs, concentration-effect: CHO-hCB2 cells. As for the experimental part: Adenylyl cyclases are a family of membrane-bound enzymes that catalyze the intracellular production of the second messenger cAMP from ATP. Adenylyl cyclase activity is modulated by activated G-proteins: Gs-proteins stimulate activity, while Gi/o-proteins are inhibitory. Thus, agonists of G-protein coupled receptors (GPCRs) coupled to Gi/o-proteins, such as hCB2Rs, decrease cAMP production due to inhibition of adenylyl cyclase activity. In this assay, intact CHO-hCB2R cells are preincubated with [^3H]-adenine and treated with forskolin (10 or 30 μM) to stimulate adenylyl cyclase activity.
A functional assay screen for the inhibition of adenylate cyclase (AC) activity was chosen as the subsequent assay. […] Reaching full-receptor occupancy, which is predicted to produce maximal efficacy, is desirable at 10 μM concentration of all the compounds was used.

For series [6], the target named is T2, hCB2Rs. The experiment in a line: Competition receptor binding with [3H]CP-55,940 in CHO-hCB2 cell homogenates. As to conditions: Table 3; read-out: hCB2R Ki. As to the method:
as §2, §4

Series [7] has as its system mice. The experiment in a line: Thermoregulation assay, antagonism of JWH-073-induced hypothermia. As to conditions: 30 minute pretreatment before JWH-073 10 mg/kg. It counts as in vivo, mouse. From the text:
Our hypothesis is that a dual activity CB1R antagonist/CB2R agonist will reduce the reinforcing effects of EtOH as well as reduce the conditioned rewarding effects of ethanol in mice. The compounds selected will firstly be put through a thermoregulation assay as a screen for potential cannabinoid receptor activity. Thermoregulation will be used as a screen because of the well-established hypothermic effects seen with the use of cannabinoid ligands. This assay was done using glass radiotelemetry probes that were surgically implanted in each mouse, which monitor core temperature in response to drug administration. […] This screen does indeed confirm the in vivo cannabinoid activity of TV-5-249 and TV-6-41 and it also illustrates the evident antagonist effects against agonist induced hypothermia.

Another series deals with CHO-WT cells. Kind of series: AC-inhibition assay in CHO-WT cells not transfected with CB2Rs. It is filed as cell-based, Chinese hamster.
Series [8] has as its target T1, CB1Rs. Particulars: mouse brain homogenates; values previously reported [39]; read-out: [3H]CP binding Ki; cited from earlier work.
In series [9] the target is T1, CB1Rs. The experiment in a line: [35S]GTPγS binding assay (G-protein activation) in mouse brain homogenates. It counts as biochemical. As to the method:
as §1
[^35S]GTPγS binding was performed as previously described. Briefly, 25 μg of mouse brain homogenates were incubated for 30 minutes at 30° C. with 0.1 nM [^35S]GTPγS, 10 μM GDP, and either cannabinoid+/−antagonist, 10 μM unlabeled GTPγS (non-specific binding) or vehicle (total binding), in triplicate, in a volume of 1 mL of buffer containing 20 mM HEPES, 10 mM MgCl2, 100 mM NaCl, 20 units/L adenosine deaminase, 0.05% BSA and the appropriate DMSO (0.1%) and/or ethanol (<0.2%) vehicle. Assay buffer containing 100 mM KCl, instead of 100 mM NaCl, was used to increase basal G-protein activity in experiments examining inverse agonism. Reactions were terminated by quick vacuum filtration through Whatman GF/B glass fiber filters, followed by five washes with ice-cold buffer (20 mM HEPES, 0.05% BSA). Filters were immediately placed into 7 mL scintillation vials to which 4 mL of ScintiVerse™ BD Cocktail scintillation fluid was added. Bound radioactivity was determined after overnight incubation at room temperature and shaking by liquid scintillation spectrophotometry with an efficiency of 93% (Tri Carb 2100 TR Liquid Scintillation Analyzer, Packard Instrument Company, Meriden, Conn.). Specific binding is expressed as picomoles of [^35S]GTPγS bound per mg of protein.
as §3

Method for CHO-WT cells: To examine if the observed agonist activity is due to activation of CB2Rs, an additional AC-inhibition assay was performed.

`Cc1c(C(=O)NN2CCCCC2)nn(-c2ccc(Cl)cc2Cl)c1-c1ccc(Cl)cc1` [rimonabant, 5-(4-Chlorophenyl)-1-(2,4-dichloro-phenyl)-4-methyl-N-(piperidin-1-yl)-1H-pyrazole-3-carboxamide, reference compound]: the “EtOH conditioned place preference” value with mice [1] was “did not elicit a significant preference for the EtOH-paired chamber”. In addition, in the series with mice [2], the “EtOH preference (10% EtOH, 2-bottle choice)” value is “decreases EtOH preference”; the body weight entry is “does indeed have an effect on body weight”; the total fluid consumption entry is “without having any effect on total fluid intake”.
`CCCCn1cc(Cc2cccc3ccccc23)c2cccc(OC)c21` [TV-5-249, 1-butyl-7-methoxy-3-(naphthalen-1-ylmethyl)-1H-indole]: the “antagonism of AC-inhibition produced by the CB1R full agonist JWH-073” value in series [3] is recorded as “antagonize AC inhibition”. In addition, testing at 10 µM in series [3] (10 μM, Neuro2A cells) gave an inhibition of 18%. Also, in [3] (Neuro2A cells), the “inhibition of AC-activity via CB1Rs, concentration-effect” value is given as “very little inhibition of AC-activity”. In addition, the Ki on CB1Rs [4] was determined as 15.4 ± 2.2 nM. In addition, at hCB2Rs [5], the inhibition at 10 µM came to 33.2% and the “inhibition of AC-activity at CB2Rs, concentration-effect” value is listed as 40-50%. For the same compound, the Ki on hCB2Rs [6] amounted to 10.9 nM. In the series with mice [2], the “EtOH preference (10% EtOH, 2-bottle choice)” value was “reduced EtOH preference”; the body weight result is “did not decrease body weight”; the total fluid consumption entry is given as “without affecting total fluid consumption”. In addition, in the series on mice [7], the “effect on JWH-073-induced hypothermia” value is given as “significantly decreased the hypothermic effects of JWH-073”. Moreover, the “AC-activity in CHO-WT cells not transfected with CB2Rs” value in the series with CHO-WT cells is “neither TV-5-249 nor TV-6-41 significantly modify AC-activity”.
`CCCCCCC(C)(C)c1ccc(C2CC(O)CC[C@H]2CCCO)c(O)c1` (some centres unmarked) [CP-55,940]: in series [3] (10 μM, Neuro2A cells), the “AC-inhibition at CB1Rs” value worked out at 45%. The Ki at CB1Rs [8] is 0.26 ± 0.1 nM. Also, the “[35S]GTPγS Binding, 100 nM” value at CB1Rs [9] (100 nM) was found to be 0.20 ± 0.04 pmol/mg. Besides, at CB1Rs [9] (1 μM cannabinoid (100 nM for CP-55,940) co-incubated with CB1R antagonist O-2050 1 μM), the “[35S]GTPγS Binding, +O-2050 (1 μM)” value was 0.06 ± 0.03 pmol/mg. The “[35S]GTPγS Binding Emax” value on CB1Rs [9] (concentration-effect, mouse brain homogenates) is 0.26 ± 0.01^a pmole/mg. The EC50 at CB1Rs [9] (concentration-effect, mouse brain homogenates, read-out: [35S]GTPγS Binding EC50) was determined as 7.5 ± 1.8 nM.
For the compound `CCCCn1cc(-c2ccc3ccccc3c2)c2cccc(OC)c21` [TV-6-41, 1-butyl-7-methoxy-3-(naphthalen-2-yl)-1H-indole], the “antagonism of AC-inhibition produced by the CB1R full agonist JWH-073” value in series [3] was “antagonize AC inhibition”. Moreover, the inhibition at 10 µM in [3] (10 μM, Neuro2A cells) was found to be 16%; on hCB2Rs [5] it was 20.8%. In addition, the “inhibition of AC-activity via CB1Rs, concentration-effect” value in [3] (Neuro2A cells) was “very little inhibition of AC-activity”. In addition, the values for the Ki at CB1Rs [4] and at hCB2Rs [6] were 37.3 ± 11.8 nM and 26.5 nM, respectively. The “inhibition of AC-activity at CB2Rs, concentration-effect” value against hCB2Rs [5] is 40-50%. The “EtOH conditioned place preference” value in the series with mice [1] is reported as “conditioned rewarding effects of EtOH were blocked”. In the series with mice [7], the “effect on JWH-073-induced hypothermia” value was “significantly decreased the hypothermic effects of JWH-073”. Also, the “AC-activity in CHO-WT cells not transfected with CB2Rs” value in the series on CHO-WT cells is listed as “neither TV-5-249 nor TV-6-41 significantly modify AC-activity”.
